The OligoGym collection
After the bases stand the sugars from the 5' end (letter, count) and the backbone: PS all phosphorothioate, else s phosphorothioate and o phosphodiester by linkage. Methylation of C is not given here. e = 2'-O-(2-methoxyethyl) (MOE); k = constrained ethyl (cEt); d = 2'-deoxy (DNA); m = 2'-O-methyl

Molecular target: HSD17B13
Conditions: ASO, HepaRG

Sequence	target mRNA inhibition (1 µM)	also measured
CAAGAGGATAGTCCAT (sugars k3 d9 k3 e1, PS)	64%	–
TTTAAAATAGAGTCGG (sugars k3 d9 k3 e1, PS)	58%	–
AAAGTGTCCTCGATCC (sugars k3 d10 k3, PS)	36%	–
TACCTCTAAGTTAGCC (sugars k3 d10 k3, PS)	28%	–
CACAAGCACACTGTAA (sugars k3 d10 k3, PS)	2%	–
ATCTUAAGATACCCAG (sugars k3 d1 m1 d8 k3, PS)	55%	–
CCAATTATGAATCTGC (sugars k3 d10 k3, PS)	61%	–
AAAAAAGCTTATCGAG (sugars k3 d10 k3, PS)	7%	–
AATGTATGAGGTCTCC (sugars k3 d10 k3, PS)	65%	–
CTACAAGAGGTTATTT (sugars k3 d10 k3, PS)	31%	–
GATGTAGTGGGAGTCG (sugars k3 d10 k3, PS)	67%	–
ACCAAACTTCCAGCAG (sugars k3 d1 m1 d8 k3, PS)	54%	–
AATAGCAAGCCAACAG (sugars k3 d10 k3, PS)	9%	–
ATATACAGACTAAGGG (sugars k3 d10 k3, PS)	24%	–
GTCTUAAACCTTCCCT (sugars k3 d1 m1 d8 k3, PS)	35%	–
GATATTATGTTCTTGG (sugars k3 d10 k3, PS)	59%	–
ACGGTGATCAAATGTA (sugars kkdddddddddkekek, PS)	33%	–
GCAGTTATTAGAAGTC (sugars kkdddddddddkekek, PS)	68%	–
ACTTTCATAGGGAGAC (sugars k3 d10 k3, PS)	80%	target mRNA inhibition (0.02 µM): 0%; target mRNA inhibition (0.078 µM): 8%; target mRNA inhibition (0.313 µM): 25%; target mRNA inhibition (1.25 µM): 69%; target mRNA inhibition (5 µM): 83%
CAGGCTGTAAGAGTCA (sugars k3 d10 k3, PS)	56%	–

Sequence	target mRNA inhibition (1 µM)	also measured
TAGCUGTGCACTCATT (sugars k3 d1 m1 d8 k3, PS)	60%	–
GATCCTATATACATCC (sugars k3 d10 k3, PS)	49%	–
CTGTGTTAGCTTTAAT (sugars k3 d10 k3, PS)	67%	target mRNA inhibition (0.02 µM): 9%; target mRNA inhibition (0.078 µM): 0%; target mRNA inhibition (0.313 µM): 28%; target mRNA inhibition (1.25 µM): 77%; target mRNA inhibition (5 µM): 92%
CTTAAGATACCCAGGT (sugars k3 d10 k3, PS)	36%	–
ATAAGAAGAGAGCTCA (sugars k3 d10 k3, PS)	14%	–
AGACCTCTGTGAAAGC (sugars k3 d10 k3, PS)	50%	–
ACATATACAGACTAAG (sugars k3 d10 k3, PS)	46%	–
ATACATTAGCAAGCTA (sugars k3 d9 k3 e1, PS)	48%	–
AATCAGTTTTCCTCAT (sugars k3 d10 k3, PS)	53%	–
ACAGTCTTAAACCTTC (sugars k3 d9 k3 e1, PS)	73%	target mRNA inhibition (0.02 µM): 13%; target mRNA inhibition (0.078 µM): 31%; target mRNA inhibition (0.313 µM): 52%; target mRNA inhibition (1.25 µM): 71%; target mRNA inhibition (5 µM): 80%
GATACTATTCTCCAAC (sugars k3 d10 k3, PS)	44%	–
ATAATAGCTCTATTGG (sugars k3 d10 k3, PS)	46%	–
CAATTTATCATACCAC (sugars k3 d10 k3, PS)	37%	–
AGAGTCGGTCACCTTT (sugars k3 d10 k3, PS)	71%	–
GTATAAATGGCAATTC (sugars k3 d10 k3, PS)	56%	–
AGCTTTTGTCCACCTT (sugars k3 d9 k3 e1, PS)	69%	–
GACAATTAACATTCGG (sugars k3 d10 k3, PS)	69%	–
TATTAGAAGTCAGCCC (sugars k3 d10 k3, PS)	27%	–
CAGACTTCTTACGACT (sugars k3 d10 k3, PS)	33%	–
